Assay [1] relates to HCT116 MTAP-deleted cells. The assay can be described thus: Cell viability assay (CellTiter-Glo, 7 days), HCT116 MTAP-deleted. Conditions: Homo sapiens, HCT-116, 168 h.
Assay [2] deals with SDMA signal (PRMT5 inhibition) in HCT116 MTAP-deleted cells. The experiment in a line: Symmetric di-methyl arginine image-based high content screen assay (SDMA assay), HCT116 MTAP-deleted. It is filed as cell-based. Particulars: SDMA assay; for EC50: Homo sapiens, HCT-116, 72 h, 3 days of treatment, cell line not given, taken as HCT116 MTAP-deleted, read-out: EC50 (SDMA assay). In a few lines:
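HCT116 MTAP-deleted cells treated with compound until Day 3, then formalin-fixed, permeabilized and immunostained for SDMA, with DAPI nuclear counterstain. Imaged by high-content microscopy; SDMA read-out is mean Alexa 488 intensity per DAPI-defined cell, reflecting PRMT5 inhibition.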

Where [3] appears, read: taken as HCT116 WT versus MTAP-deleted.

Where only a bound is given, the exact number is not on record here.

In assay [1], `CN(c1ncccn1)N(Cc1cn2cc(Cl)ccc2n1)C(=O)c1ccc2nc(N)c3cnn(C)c3c2c1` [Example 129, 4-amino-N-[(6-chloroimidazo[1,2-a]pyridin-2-yl)methyl]-N′,1-dimethyl-N′-pyrimidin-2-yl-pyrazolo[4,3-c]quinoline-8-carbohydrazide] registered a CC50 of less than 100 nM. Moreover, in assay [2], the EC50 is less than 1 nM. Also, in assay [2] (setting [3]), the “EC50 selectivity (SDMA assay)” value was 11.

Turning to `CN(C(=O)[C@H]1C[C@@H]1F)N(Cc1ccc(C(F)(F)F)cn1)C(=O)c1ccc2nc(N)c3cnn(C)c3c2c1` [Example 255, 4-amino-N′-((1R,2S)-2-fluorocyclopropane-1-carbonyl)-N′,1-dimethyl-N-((5-(trifluoromethyl)pyridin-2-yl)methyl)-1H-pyrazolo[4,3-c]quinoline-8-carbohydrazide], the CC50 in assay [1] was less than 100 nM. For the same molecule, the EC50 in assay [2] is less than 1 nM. Also, the “EC50 selectivity (SDMA assay)” value in assay [2] (setting [3]) was determined as 51.

In assay [1], `CC(=O)N(C)N(Cc1ccc(-c2cnn(C(F)(F)F)c2)cc1F)C(=O)c1ccc2nc(N)c3cnn(C)c3c2c1` [Example 222, N′-acetyl-4-amino-N-(2-fluoro-4-(1-(trifluoromethyl)-1H-pyrazol-4-yl)benzyl)-N′,1-dimethyl-1H-pyrazolo[4,3-c]quinoline-8-carbohydrazide] displayed a CC50 of less than 100 nM. Further, in assay [2], the EC50 was less than 1 nM. Further, in assay [2] (setting [3]), the “EC50 selectivity (SDMA assay)” value was determined as 123.

Consider `CN(c1ncccn1)N(Cc1ccc(C(F)(F)F)cn1)C(=O)c1ccc2nc(N)c3ccccc3c2c1` [Example 24, 6-amino-N′-methyl-N′-(pyrimidin-2-yl)-N-((5-(trifluoromethyl)pyridin-2-yl)methyl)phenanthridine-2-carbohydrazide], for which the CC50 in assay [1] is less than 100 nM. Further, the EC50 in assay [2] was less than 1 nM. Moreover, the “EC50 selectivity (SDMA assay)” value in assay [2] (setting [3]) is given as 87.

On to `Cn1ncc2c(N)nc3cc(F)c(C(=O)N(Cc4ccc(C(F)(F)F)cn4)NC(=O)OC4CCC4)cc3c21` [Example 331, cyclobutyl 2-(4-amino-7-fluoro-1-methyl-1H-pyrazolo[4,3-c]quinoline-8-carbonyl)-2-((5-(trifluoromethyl)pyridin-2-yl)methyl)hydrazine-1-carboxylate], for which the CC50 in assay [1] is less than 100 nM. For the same molecule, in assay [2], the EC50 is less than 1 nM. In assay [2] (setting [3]), the “EC50 selectivity (SDMA assay)” value is reported as 37.

`CC(=O)N(C)N(Cc1cc2cccc(C(F)(F)F)c2s1)C(=O)c1ccc2nc(N)c3cnn(C)c3c2c1` [Example 419, N′-acetyl-4-amino-N′,1-dimethyl-N-((7-(trifluoromethyl)benzo[b]thiophen-2-yl)methyl)-1H-pyrazolo[4,3-c]quinoline-8-carbohydrazide] came in with a CC50 in assay [1] of less than 100 nM. In assay [2], the EC50 was in the range of 1 to 5 nM. Also, the “EC50 selectivity (SDMA assay)” value in assay [2] (taken as HCT116 WT vs MTAP-deleted) is 118.

`Cn1ncc2c(N)nc3ccc(C(=O)N(Cc4ccc(C(F)(F)F)cn4)N4CCCCC4=O)cc3c21` [Example 29, 4-amino-1-methyl-N-(2-oxo-1-piperidyl)-N-[[5-(trifluoromethyl)-2-pyridyl]methyl]pyrazolo[4,3-c]quinoline-8-carboxamide] registered a CC50 in assay [1] of less than 100 nM. The EC50 in assay [2] is less than 1 nM. Besides, in assay [2] (setting [3]), the “EC50 selectivity (SDMA assay)” value worked out at 43.

The molecule `CC(=O)N(C)N(Cc1nc2cc(Cl)ccc2o1)C(=O)c1ccc2nc(N)c3cnn(C)c3c2c1` [Example 97, N′-acetyl-4-amino-N-((5-chlorobenzo[d]oxazol-2-yl)methyl)-N′,1-dimethyl-1H-pyrazolo[4,3-c]quinoline-8-carbohydrazide] showed a CC50 in assay [1] of less than 100 nM. For the same molecule, the EC50 in assay [2] fell in the range of 1 to 5 nM. Moreover, the “EC50 selectivity (SDMA assay)” value in assay [2] (setting [3]) is 98.

`CN(C(=O)C1(F)CC1)N(Cc1ccc(C(F)(F)F)nn1)C(=O)c1ccc2nc(N)c3cnn(C)c3c2c1` [Example 193, 4-amino-N′-(1-fluorocyclopropanecarbonyl)-N′,1-dimethyl-N-[[6-(trifluoromethyl)pyridazin-3-yl]methyl]pyrazolo[4,3-c]quinoline-8-carbohydrazide] came in with a CC50 in assay [1] of less than 100 nM. Besides, the EC50 in assay [2] was less than 1 nM. For the same molecule, the “EC50 selectivity (SDMA assay)” value in assay [2] (setting [3]) is given as 202.

Molecule `[2H]C([2H])([2H])N(C(=O)C1CC1)N(Cc1ccc(C(F)(F)F)cn1)C(=O)c1ccc2nc(N)c3cnn(C([2H])([2H])[2H])c3c2c1` [Example 326, 4-amino-N′-(cyclopropanecarbonyl)-N′,1-bis(methyl-d3)-N-((5-(trifluoromethyl)pyridin-2-yl)methyl)-1H-pyrazolo[4,3-c]quinoline-8-carbohydrazide] registered a CC50 in assay [1] of less than 100 nM. Also, in assay [2], the EC50 is less than 1 nM. The “EC50 selectivity (SDMA assay)” value in assay [2] (setting [3]) is given as 114.

Take `CN(C(=O)[C@H]1C[C@H]1F)N(Cc1ccc(C(F)(F)F)cn1)C(=O)c1ccc2nc(N)c3cnn(C)c3c2c1` [Example 258, 4-amino-N′-((1R,2R)-2-fluorocyclopropane-1-carbonyl)-N′,1-dimethyl-N-((5-(trifluoromethyl)pyridin-2-yl)methyl)-1H-pyrazolo[4,3-c]quinoline-8-carbohydrazide]: the CC50 in assay [1] is less than 100 nM. For the same molecule, the EC50 in assay [2] lay in the range of 1 to 5 nM. In assay [2] (setting [3]), the “EC50 selectivity (SDMA assay)” value is given as 221.

Turning to `CC(=O)N(CC1CC1)N(Cc1ccc(C(F)(F)F)cn1)C(=O)c1ccc2nc(N)c3cnn(C)c3c2c1` [Example 341, N′-acetyl-4-amino-N′-(cyclopropylmethyl)-1-methyl-N-((5-(trifluoromethyl)pyridin-2-yl)methyl)-1H-pyrazolo[4,3-c]quinoline-8-carbohydrazide], the CC50 in assay [1] is less than 100 nM. For the same molecule, the EC50 in assay [2] is 1 to 5 nM. Further, in assay [2] (setting [3]), the “EC50 selectivity (SDMA assay)” value is reported as 188.

For the molecule `Cn1ncc2c(N)nc3ccc(C(=O)N(Cc4ccc(C(F)(F)F)cn4)n4ccc5cccnc54)cc3c21` [Example 295, 4-amino-1-methyl-N-(1H-pyrrolo[2,3-b]pyridin-1-yl)-N-((5-(trifluoromethyl)pyridin-2-yl)methyl)-1H-pyrazolo[4,3-c]quinoline-8-carboxamide], the CC50 in assay [1] was less than 100 nM. Also, the EC50 in assay [2] is less than 1 nM. Moreover, in assay [2] (setting [3]), the “EC50 selectivity (SDMA assay)” value is listed as 18.

In turn, `[2H]C([2H])([2H])n1ncc2c(N)nc3ccc(C(=O)N(Cc4ccc(C(F)(F)F)cn4)N(C)C(=O)C4CC4)cc3c21` [Example 257, 4-amino-N′-(cyclopropanecarbonyl)-N′-methyl-1-(methyl-d3)-N-((5-(trifluoromethyl)pyridin-2-yl)methyl)-1H-pyrazolo[4,3-c]quinoline-8-carbohydrazide] yielded a CC50 in assay [1] of less than 100 nM. The EC50 in assay [2] is less than 1 nM. For the same molecule, the “EC50 selectivity (SDMA assay)” value in assay [2] (setting [3]) stood at 213.

With `CC(C)C(=O)N(C)N(Cc1ccc(C(F)(F)F)cn1)C(=O)c1ccc2nc(N)c3cnn(C)c3c2c1` [Example 120, 4-amino-N′-isobutyryl-N′,1-dimethyl-N-((5-(trifluoromethyl)pyridin-2-yl)methyl)-1H-pyrazolo[4,3-c]quinoline-8-carbohydrazide], in assay [1], the CC50 is less than 100 nM. The EC50 in assay [2] was less than 1 nM. Moreover, the “EC50 selectivity (SDMA assay)” value in assay [2] (setting [3]) came out at 542.

`CN(C(=O)C1CCC1)N(Cc1ccc(C(F)(F)F)cn1)C(=O)c1ccc2nc(N)c3cnn(C)c3c2c1` [Example 108, 4-amino-N′-(cyclobutanecarbonyl)-N′,1-dimethyl-N-[[5-(trifluoromethyl)-2-pyridyl]methyl]pyrazolo[4,3-c]quinoline-8-carbohydrazide] showed a CC50 in assay [1] of less than 100 nM. The EC50 in assay [2] was less than 1 nM. Also, the “EC50 selectivity (SDMA assay)” value in assay [2] (setting [3]) amounted to 70.

As to `CC(=O)N(C)N(Cc1ccccc1F)C(=O)c1cc2c(cc1F)nc(N)c1cnn(C)c12` [Example 182, N′-acetyl-4-amino-7-fluoro-N-(2-fluorobenzyl)-N′,1-dimethyl-1H-pyrazolo[4,3-c]quinoline-8-carbohydrazide], the CC50 in assay [1] is less than 100 nM. In addition, in assay [2], the EC50 was less than 1 nM. Also, the “EC50 selectivity (SDMA assay)” value in assay [2] (setting [3]) came to 209.

As to `C[C@H]1CN(N(Cc2ccc(C(F)(F)F)cn2)C(=O)c2ccc3nc(N)c4cnn(C)c4c3c2)C(=O)O1` (single isomer, unassigned) [Example 8], the cytotoxic concentration (CC50) in assay [1] was less than 100 nM. In addition, the EC50 in assay [2] is less than 1 nM. For the same molecule, the “EC50 selectivity (SDMA assay)” value in assay [2] (setting [3]) is recorded as 137.

As to `CN(C(=O)N1CC2CC1C2)N(Cc1ccc(C(F)(F)F)cn1)C(=O)c1ccc2nc(N)c3cnn(C)c3c2c1` [Example 128, 4-amino-N′-(2-azabicyclo[2.1.1]hexane-2-carbonyl)-N′,1-dimethyl-N-((5-(trifluoromethyl)pyridin-2-yl)methyl)-1H-pyrazolo[4,3-c]quinoline-8-carbohydrazide], in assay [1], the CC50 was less than 100 nM. Further, in assay [2], the EC50 was less than 1 nM. The “EC50 selectivity (SDMA assay)” value in assay [2] (setting [3]) amounted to 131.

As to `Cn1ncc2c(N)nc3ccc(C(=O)N(Cc4nc(C(F)(F)F)cs4)N4CCCOC4=O)cc3c21` [Example 135, 4-amino-1-methyl-N-(2-oxo-1,3-oxazinan-3-yl)-N-((4-(trifluoromethyl)thiazol-2-yl)methyl)-1H-pyrazolo[4,3-c]quinoline-8-carboxamide], the CC50 in assay [1] lay in the range of 100 to 1000 nM. Further, in assay [2], the EC50 lay within 1 to 5 nM. Moreover, the “EC50 selectivity (SDMA assay)” value in assay [2] (setting [3]) came to 495.

Take `CC(=O)N(C)N(Cc1ccc(F)c(F)c1F)C(=O)c1ccc2nc(N)c3cnn(C)c3c2c1` [Example 48, N′-acetyl-4-amino-N′,1-dimethyl-N-[(2,3,4-trifluorophenyl)methyl]pyrazolo[4,3-c]quinoline-8-carbohydrazide]: the CC50 in assay [1] was less than 100 nM. For the same molecule, the EC50 in assay [2] was in the range of 1 to 5 nM. In assay [2] (setting [3]), the “EC50 selectivity (SDMA assay)” value was found to be 326.

(Values after US20240254118A1, “PRMT5 INHIBITORS AND USES THEREOF” (Gilead Sciences, Inc., priority 2022, published 2024).)
